These results are taken from paper PMC9570088, “Phytochemicals with Chemopreventive Activity Obtained from the Thai Medicinal Plant Mammea siamensis (Miq.) T. Anders.: Isolation and Structure Determination of New Prenylcoumarins with Inhibitory Activity against Aromatase” (International Journal of Molecular Sciences, 2022).

Test [1] addresses T1, human recombinant aromatase (Homo sapiens, UniProt P11511).
T1 construct: purchased BD Biosciences (Heidelberg, Germany)
T1 sequence (P11511 1-503): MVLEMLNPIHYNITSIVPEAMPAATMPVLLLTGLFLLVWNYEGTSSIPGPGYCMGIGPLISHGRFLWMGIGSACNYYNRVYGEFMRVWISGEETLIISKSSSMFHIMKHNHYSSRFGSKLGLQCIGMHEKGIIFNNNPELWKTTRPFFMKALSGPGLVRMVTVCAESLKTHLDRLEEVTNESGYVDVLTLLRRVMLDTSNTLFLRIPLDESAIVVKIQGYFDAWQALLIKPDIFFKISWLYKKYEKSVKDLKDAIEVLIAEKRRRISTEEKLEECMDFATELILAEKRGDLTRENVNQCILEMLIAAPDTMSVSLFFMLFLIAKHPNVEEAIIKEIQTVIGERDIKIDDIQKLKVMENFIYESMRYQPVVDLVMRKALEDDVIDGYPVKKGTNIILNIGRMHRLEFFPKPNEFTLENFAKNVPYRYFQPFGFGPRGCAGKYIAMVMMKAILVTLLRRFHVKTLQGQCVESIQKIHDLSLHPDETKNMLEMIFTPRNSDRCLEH
The experiment in a line: Inhibitory effects against human recombinant aromatase (DBF fluorescence assay). In kind it is biochemical. The note with it: for IC50: substrate DBF, mean, N = 3. The procedure:
Dibenzylfluorescein (DBF) and human CYP19 + P450 reductase SUPERSOMES (human recombinant aromatase) were purchased from BD Biosciences (Heidelberg, Germany) and testosterone from Tokyo Chemical Industry Co., Ltd. (Tokyo, Japan). The other chemicals used in this study were purchased from Wako Pure Chemical Industries, Co., Ltd. (Osaka, Japan).
The experiments were performed according to a previously described method. Briefly, a test sample was dissolved in dimethyl sulfoxide (DMSO), and the solution was diluted with potassium phosphate buffer (50 mM, pH 7.4) containing MgCl2 (0.5 mM) to obtain the test sample solution (concentration of DMSO: 2%). An enzyme/substrate solution in the buffer (20 µL, 1.6 µM DBF, 8 nM human recombinant aromatase) and the test sample solution (20 µL) were mixed in a 96-well half-area black microplate (Greiner Bio-One, Frickenhausen, Germany) at 37 °C for 10 min. The enzymatic reaction was initiated by adding NADPH solution (40 µL, 500 µM) at 37 °C for 30 min. After 30 min of incubation, NaOH (30 µL, 2 mM) was added, and the reaction mixture was incubated at 37 °C for 2 h to induce fluorescent signals (final DMSO concentration, 0.5%; aromatase, 2 nM; and NADPH, 250 µM). Fluorescence was measured using a fluorescence microplate reader (SH-9000, CORONA […] Co., Ltd., Ibaraki, Japan) at an excitation wavelength of 435 nm and emission wavelength of 535 nm. Experiments were performed in triplicate, and the IC50 values were determined graphically.

The target of test [2] is T1, human recombinant aromatase. The experiment in a line: Kinetic analysis of inhibitory activity against human recombinant aromatase using Lineweaver-Burk plots (testosterone substrate, estradiol EIA). In kind it is biochemical. The note with it: for mode of inhibition of aromatase: Lineweaver–Burk plots; for Ki: testosterone 0.4–4 µM as substrate, secondary plot of Lineweaver–Burk, N = 3. The source says:
In the assay system, we fixed the enzyme concentration, changed the substrate concentration, and obtained the kinetic parameters of the enzyme-catalyzed reaction using Lineweaver–Burk double reciprocal plot 1/[V] vs. 1/[S]. The inhibition constant Ki indicates the potency of an inhibitor and equals the concentration required to produce half-maximal inhibition. The Ki value was obtained from the intersection of the secondary plot with the x-axis (apparent Km/Vmax vs. inhibitor).
Experiments were performed using a previously described protocol, modified by using various concentrations of testosterone (0.4–4 µM) as substrates instead of DBF and the plate was heated at 37 °C for 15 min. After the reaction, the enzyme was inactivated by heating in a boiling water bath for 2 min. An estradiol EIA kit (Oxford Biomedical Research, Inc., Oxford, MI, USA) was used to develop an estradiol standard curve to determine the concentration of estradiol produced and to correlate the concentration of estradiol with the reaction velocity. The mode of inhibition was analyzed using the Lineweaver–Burk plot of the inverse of the reaction velocity of estradiol plotted on the vertical axis and the inverse of the final concentration of the substrate on the horizontal axis, with and without the test substance (Figure S27).

Test [3] shares this target. More on the design: method as in PMID 27373643. The note with it: value marked as from earlier report; read-out: IC50 against human recombinant aromatase; cited from earlier work.

Entries after “also recorded” stand apart in the source; their conditions may differ. Read-outs that look alike come from different tables or passages of the source.

For orientation: IC50 means the concentration needed to halve the response being measured. As for `CCCC(=O)c1c(O)c2c(c3c(CCC)cc(=O)oc13)OC(C)(CCC=C(C)C)C=C2` (centres unmarked) [compound 12, Mammeasin G], the IC50 in test [1] was found to be 21.3 µM. What is called Ki is the equilibrium dissociation constant of an inhibitor or competing ligand from its target. Regarding `CCCC(=O)c1c(O)c2c(c3c(CCC)cc(=O)oc13)OC(C)(C)C=C2` [compound 1, mammeasin K], the IC50 in test [1] was 7.6 µM. Besides, in test [2], the “mode of inhibition of aromatase” value is given as “competitively inhibit; also recorded: competitive inhibition; also recorded: competitive inhibitors” and the Ki was 3.4 µM. `CCCC(=O)c1c(O)c2c(c3c(C(CC)OC(C)=O)cc(=O)oc13)OC(C)(C)C=C2` (centres unmarked) [compound 33, Mammea E/BC cyclo D]: the IC50 in test [3] is 11.5 µM. In test [2], the “mode of inhibition of aromatase” value is “competitive inhibition; also recorded: competitive inhibitors” and the Ki came to 2.3 µM.

For the compound `CCCC(=O)c1c(O)c(C/C=C(\C)CCC=C(C)C)c(O)c2c([C@H](CC)OC(C)=O)cc(=O)oc12` [compound 6, Mammeasin A], the IC50 in test [3] is 8.7 µM. Also, the Ki in test [2] stood at 5.1 µM. As for `CC[C@H](OC(C)=O)c1cc(=O)oc2c(C(=O)CC(C)C)c(O)c(CC=C(C)C)c(O)c12` [compound 36, Mammea E/BA], the IC50 in test [3] was 16.6 µM. Take `CCCC(=O)c1c(O)c(C/C=C(\C)CCC=C(C)C)c2c3c(cc(=O)oc13)CC(C)O2` (centres unmarked) [compound 9, Mammeasin D]: the IC50 in test [3] is 3.6 µM. Further, the Ki in test [2] came to 4.3 µM. As a reminder, the inhibition is the share of the control response that was lost under treatment. Consider `CCCC(=O)c1c2c(c3oc(=O)cc(-c4ccccc4)c3c1O)C(OC)C(C(C)(C)O)O2` (centres unmarked) [compound 3, mammeasin M], for which the inhibition at 100 µM in test [1] (100 µM, value in parentheses) worked out at 43.4%. Moreover, the IC50 in test [1] is > 100 µM.

Regarding `CCCc1cc(=O)oc2c3c(c(C(=O)C(C)CC)c(O)c12)OC(C)(CCC=C(C)C)C=C3` (centres unmarked) [compound 15, Mammeasin J], in test [1], the IC50 was determined as 23.4 µM. Consider `CC[C@H](OC(C)=O)c1cc(=O)oc2c(C(=O)CC(C)C)c(O)c(C/C=C(\C)CCC=C(C)C)c(O)c12` [compound 7, Mammeasin B], for which, in test [3], the IC50 is 4.1 µM. In test [2], the “mode of inhibition of aromatase” value is recorded as “competitive inhibition; also recorded: competitive inhibitors” and the inhibitory constant (Ki) amounted to 1.3 µM. As to `CC[C@H](O)c1cc(=O)oc2c(CC=C(C)C)c(O)c(C(=O)CC(C)C)c(O)c12` [compound 22, Kayaessamin G], the IC50 in test [3] was 27.8 µM.

Regarding `CCCc1cc(=O)oc2c3c(c(C(=O)C(C)CC)c(O)c12)OC(C)(C)C=C3` (centres unmarked) [compound 31, Mammea B/AB cyclo D], in test [3], the IC50 was 3.1 µM. Also, in test [2], the “mode of inhibition of aromatase” value is “competitive inhibitory activity; also recorded: competitive inhibition; also recorded: competitive inhibitors” and the Ki turned out to be 0.84 µM.

As to `CCCC(=O)c1c(O)c2c(c3c([C@@H](O)CC)cc(=O)oc13)OC(C)(C)C=C2` [compound 35, Deacetylammea E/BC cyclo D], the IC50 in test [3] was 16.6 µM.

As for `CCC(C)C(=O)c1c(O)c(CC=C(C)C)c2oc(=O)cc([C@@H](O)CC)c2c1O` (some centres unmarked) [compound 21, Kayaessamin F], in test [3], the IC50 is 19.7 µM. As for `CC(C)=CCC/C(C)=C/Cc1c(O)c(C(=O)C(C)C)c2oc(=O)cc3c2c1OC(C)C3` (centres unmarked) [compound 8, Mammeasin C], the half-maximal inhibitory concentration (IC50) in test [3] was 2.7 µM. Further, in test [2], the “mode of inhibition of aromatase” value was “competitive inhibition; also recorded: competitive inhibitors” and the Ki is 2.8 µM. With `CC[C@H](O)c1cc(=O)oc2c3c(c(C(=O)CC(C)C)c(O)c12)OC(C)(C)C=C3` [compound 41, Deacetylammea E/AA cyclo D], in test [1], the IC50 was determined as 19.3 µM. With `CC(C)CC(=O)c1c2c(c3oc(=O)cc(-c4ccccc4)c3c1O)C=CC(C)(C)O2` [compound 28, Mammea A/AA cyclo D], in test [3], the IC50 is 7.2 µM. Further, in test [2], the “mode of inhibition of aromatase” value is recorded as “competitive inhibition; also recorded: competitive inhibitors” and the Ki was 1.2 µM. In the case of `CCCC(=O)c1c2c(c3oc(=O)cc(-c4ccccc4)c3c1O)C=CC(C)(C)O2` [compound 30, Mammea A/AC cyclo D], in test [3], the IC50 was 35 µM. Take `CCC(C)C(=O)c1c(O)c(C/C=C(\C)CCC=C(C)C)c(O)c2c([C@H](CC)OC(C)=O)cc(=O)oc12` (some centres unmarked) [compound 16, Surangin B]: the IC50 in test [3] was 9.8 µM. In addition, in test [2], the “mode of inhibition of aromatase” value is on record as “competitive inhibition; also recorded: competitive inhibitors” and the Ki turned out to be 1.3 µM. As for `CCC(C)C(=O)c1c(O)c(C/C=C(\C)CCC=C(C)C)c(O)c2c([C@@H](O)CC)cc(=O)oc12` (some centres unmarked) [compound 17, Surangin C], in test [3], the IC50 is 8.8 µM. Also, in test [2], the “mode of inhibition of aromatase” value is listed as “competitive inhibition; also recorded: competitive inhibitors” and the Ki came to 2.6 µM. As for `CCC(C)C(=O)c1c(O)c2c(c3c([C@@H](O)CC)cc(=O)oc13)OC(C)(C)C=C2` (some centres unmarked) [compound 42, Deacetylammea E/BB cyclo D], the IC50 in test [1] is 12.1 µM. As for `CCCC(=O)c1c2c(c3oc(=O)cc(CCC)c3c1O)C=CC(C)(C)O2` [compound 32, Mammea B/AC cyclo D], in test [3], the IC50 is 24.6 µM. On to `CCCC(=O)c1c2c(c3oc(=O)cc(-c4ccccc4)c3c1O)CC(C(C)(C)O)O2` (centres unmarked) [compound 40, Mammea A/AC cyclo F], for which, in test [1], the IC50 was 19.9 µM.

With `CCCC(=O)c1c(O)c(CC=C(C)C)c2oc(=O)cc(-c3ccccc3)c2c1O` [compound 26, Mammea A/AC], the IC50 in test [3] is 13.7 µM.

As to `CCCC(=O)c1c(O)c2c(c3c(-c4ccccc4)cc(=O)oc13)OC(C)(C)C=C2` [compound 2, mammeasin L], in test [1], the IC50 amounted to 20.7 µM.

As to `CC(C)=CCc1c(O)c(C(=O)C(C)C)c(O)c2c(-c3ccccc3)cc(=O)oc12` [compound 27, Mammea A/AD], the IC50 in test [3] is 11.3 µM.

As to `CCC(C)C(=O)c1c2c(c3oc(=O)cc(-c4ccccc4)c3c1O)C=CC(C)(C)O2` (centres unmarked) [compound 29, Mammea A/AB cyclo D], the IC50 in test [3] was 24.1 µM.

With `C/C=C/c1cc(=O)oc2c(C(=O)CCC)c(O)c3c(c12)OC(C)(CCC=C(C)C)C=C3` (centres unmarked) [compound 14, Mammeasin I], in test [1], the IC50 worked out at 21.3 µM. With `CCCc1cc(=O)oc2c(C(=O)C(C)CC)c(O)c3c(c12)OC(C)(CCC=C(C)C)C=C3` (centres unmarked) [compound 13, Mammeasin H], in test [1], the IC50 was found to be 17.9 µM. In the case of `CCC(C)C(=O)c1c(O)c(CC=C(C)C)c(O)c2c(C(CC)OC(C)=O)cc(=O)oc12` (centres unmarked) [compound 37, Mammea E/BB], in test [3], the IC50 is 18.6 µM. In the case of `CCC(OC(C)=O)c1cc(=O)oc2c(C(=O)C(C)C)c(O)c3c(c12)OC(C)(C)C=C3` (centres unmarked) [compound 34, Mammea E/BD cyclo D], the IC50 in test [1] turned out to be 21.1 µM. As for `CCC(C)C(=O)c1c(O)c(CC=C(C)C)c2oc(=O)cc(-c3ccccc3)c2c1O` (centres unmarked) [compound 25, Mammea A/AB], the IC50 in test [3] was 8.6 µM. In test [2], the Ki was found to be 8.1 µM. As for `CC(C)=CCc1c(O)c(C(=O)CC(C)C)c(O)c2c(-c3ccccc3)cc(=O)oc12` [compound 24, Mammea A/AA], the IC50 in test [3] is 6.9 µM. Moreover, in test [2], the Ki is 13.7 µM. For the compound `CC[C@H](O)c1cc(=O)oc2c(C(=O)CC(C)C)c(O)c(C/C=C(\C)CCC=C(C)C)c(O)c12` [compound 18, Surangin D], the IC50 in test [3] is 9.8 µM. Turning to `CCCC(=O)c1c(O)c(CC=C(C)C)c2oc(=O)cc([C@@H](O)CC)c2c1O` [compound 20, Kayaessamin E], in test [3], the IC50 was 14.9 µM.

For `CCCC(=O)c1c(O)c(C/C=C(\C)CCC=C(C)C)c(O)c2c([C@@H](O)CC)cc(=O)oc12` [compound 19, Kayeassamin A], the IC50 in test [1] turned out to be 10 µM.
